US20260027094A1, “USE OF PYRIDONE DERIVATIVE” (GUANGZHOU JOYO PHARMATECH CO., LTD, priority 2022, published 2026)

Legend:
[1] = tested on: carbon tetrachloride-induced SD rat models of liver fibrosis; assay: In vivo pharmacodynamic study on carbon tetrachloride-induced rat models of liver fibrosis; design: species or system SD rats; settings: for Liver fibrosis score (points): Sirius Red staining, model control 4.90 ± 0.88; for Liver CVF (%): model control 8.75 ± 2.39, normal 1.24 ± 0.23; for Liver HYP content: model control 702.84 ± 173.44, normal 307.30 ± 78.13
Text: • 1) Animals: SD rats, specific pathogen-free (SPF) grade, male, aged 7 to 8 weeks at the time of grouping, with 10 mice per group. The animals were supplied by Beijing HFK Bioscience Co., Ltd. • 2) Reagents, positive drugs, and test drugs • A. Reagents
• B. Positive Drug: Pirfenidone, Supplied by Biochempartner. • C. Test Drug: compound I, supplied by Guangzhou JOYO Pharmatech Co., Ltd. • 3) Modeling method
Intraperitoneal injection method of carbon tetrachloride: After the adaptation period inspection and observation were qualified, experimental animals were screened by body weight and randomly divided into a normal control group and a model induction group. Starting on the first day of grouping, animals in the model induction group were intraperitoneally injected with a 20% carbon tetrachloride solution dissolved in corn oil, at a modeling frequency of twice a week for six consecutive weeks. After two weeks of carbon tetrachloride induction, animals in the model induction group were randomly subdivided a second time into 5 experimental groups based on their alanine transaminase (ALT) levels (with body weight used as a calibration factor), including the model control group, positive drug treatment group, test compound low dose treatment group, test compound medium dose treatment group, and test compound high dose treatment group. Animals in the normal control group were administered the corresponding vehicle. The experimental period lasted for 6 weeks, during which all animals were given normal access to water and food. • 4) Grouping and administration info
• a: The test compound vehicle was an aqueous solution of 0.5% (w/v) methylcellulose and 0.2% (v/v) Tween 80. • b: An aqueous solution of 0.5% (w/v) methylcellulose and 0.2% (v/v) Tween 80 was used as the vehicle and prepared to the required concentration. • 5) Endpoint sample collection, histopathological analysis, and hydroxyproline content analysis. • A. After euthanizing the animals with pentobarbital sodium anesthesia, the liver was excised and rinsed with normal saline. The liver was divided into three segments: the large lobe, the left lobe, and the right-middle lobe. The large lobe tissue was quickly frozen in liquid nitrogen and stored in a −80° C. refrigerator for measuring the total hydroxyproline levels of animal liver samples in each group. The tissues of left lobe and right-middle lobe of liver were fixed in 10% formaldehyde, embedded in paraffin, and sectioned into 3 μm-thick slices. These slices were then deparaffinized in xylene, rehydrated through a graded ethanol series, subjected to Sirius Red staining, dehydrated, cleared, sealed, and observed under a microscope to capture histopathological changes. Routine tissue freezing was performed. • B. Analysis of fibrosis levels in liver tissue sections;
Based on Sirius Red staining results of liver sections, 1) fibrosis staging was scored according to the scoring criteria listed in Table 3; 2) using Image J, the liver fibrotic area and the total sample area of animals in each experimental group were counted to calculate the collagen volume fraction (CVF %) for each sample. • C. Detection of hydroxyproline levels in liver
The liver large lobe samples were processed according to the instructions using the hydroxyproline detection kit. The total hydroxyproline levels in the liver samples of animals in each group were detected.

[2] = tested on: TNBS-induced SD rat models of chronic colitis with intestinal fibrosis; assay: Pharmacodynamic experiment of TNBS-induced rat models of chronic colitis with intestinal fibrosis; assay type: in vivo, SD rats; settings: for AUC(0-10 d) (D 0-D 10) of DAI scores: after first TNBS induction; for AUC(0-10 d) (D 0-D 10) of DAI scores / AUC(14-24 d) (D 14-D 24) of DAI scores: mean ± SD; for AUC(14-24 d) (D 14-D 24) of DAI scores: after second TNBS induction; for CVF (%) of colon middle segment: Masson staining, model control 6.39 ± 3.16, normal 0.74 ± 0.32; for Inflammatory response (points), histopathological score of colon tissue / Tissue ulcer (points), histopathological score of colon tissue: colon middle segment, model control 2.00 ± 0.00; for HYP (μg/g) of colon middle segment: model control 2109.99 ± 385.85, normal 1141.78 ± 106.42; for Change rate of AUC(0-10 d) (%) / Change rate of AUC(14-24 d) (%): relative to model control group
Text: • 1) Animals: SD rats, specific pathogen-free (SPF) grade, male, aged 7 to 8 weeks at the time of grouping, with 10 rats per group. The animals were supplied by Beijing HFK Bioscience Co., Ltd. • 2) Reagents, positive drugs, and test drugs • A. Reagents
• B. Positive Drugs: Sulfasalazine Colon-Soluble Capsules, Supplied by Guangdong Qiangji Pharmaceutical Co., Ltd. • C. Test Drug: Compound I, Supplied by Guangzhou JOYO Pharmatech Co., Ltd. • 3) Modeling method
TNBS two-enema method: After the adaptation period inspection and observation were qualified, experimental animals were screened by body weight and randomly divided into six experimental groups based on body weight. The groups included a normal control group, a model control group, a positive drug treatment group, a test compound low dose treatment group, a test compound medium dose treatment group, and a test compound high dose treatment group, with 10 rats in each group. On the day of grouping, animals in the normal control group were administered 50% ethanol solution via enema, while animals in the other groups were administered TNBS ethanol solution via enema. The dose of TNBS was 30 mg per animal, with the induction of the model performed twice at a frequency of once every two weeks. The experimental period lasted for 4 weeks, during which all animals were given normal access to water and food. • 4) Grouping and administration
The Disease Activity Index (DAI) scoring was performed on each group of experimental animals based on indicators such as animal body weight, stool morphology and characteristics, and occult blood or hematochezia. Scoring was performed after model induction, once a day for 10 consecutive days, for a total of 2 rounds.
Note: The DAI score was performed based on the percentage of body weight loss, stool morphology, and progression of blood in the stool. Statistical analysis was conducted comprehensively using these three scoring indicators. • 6) Endpoint sample collection, histopathological analysis, and hydroxyproline content analysis • A. After euthanizing the animals with pentobarbital sodium anesthesia, the colon, i.e., the segment from the end of cecum to the anus, was excised. The intestinal segment was flushed with normal saline, and the entire colon was evenly divided into upper, middle, and lower segments. The middle segment of the colon was further divided, with part of the tissue quickly frozen in liquid nitrogen and stored in a −80° C. refrigerator for measuring the total hydroxyproline levels in the middle segment samples of the colon of animals in each group. The remaining middle segment tissue was fixed in 10% formaldehyde, embedded in paraffin, and sectioned into 3 μm-thick slices. These slices were then deparaffinized in xylene, rehydrated through a graded ethanol series, subjected to H&E staining and Masson staining, dehydrated, cleared, sealed, and observed under a microscope to capture histopathological changes. Routine tissue freezing was performed. • B. Histopathological analysis
• a: Based on the Masson staining results, the area of collagen staining-positive regions and the total area of samples from the middle segment samples of the colon (submucosa and muscularis) of animals in each experimental group were statistically analyzed using Image J to calculate the collagen volume fraction (CVF %) of each sample. • C. Detection of hydroxyproline levels in the colon
The middle segment samples of the colon were processed according to the instructions, using the hydroxyproline detection kit. The total hydroxyproline levels in the middle segment samples of the colon of animals in each group were measured.

[3] = pirfenidone 150 mg/kg twice a day for 4 weeks
[4] = sulfasalazine 50 mg/kg oral gavage twice a day
[5] = sulfasalazine 50 mg/kg twice a day
[6] = sulfasalazine 50 mg/kg twice a day for 4 weeks
[7] = Compound I high dose 30 mg/kg twice a day for 4 weeks
[8] = Compound I low dose 3 mg/kg twice a day for 4 weeks
[9] = Compound I medium dose 10 mg/kg twice a day for 4 weeks
[10] = Compound I high dose 15 mg/kg oral gavage twice a day
[11] = Compound I high dose 15 mg/kg twice a day for 4 weeks
[12] = Compound I high dose 15 mg/kg twice a day
[13] = Compound I low dose 3 mg/kg oral gavage twice a day
[14] = Compound I low dose 3 mg/kg twice a day
[15] = Compound I medium dose 6 mg/kg oral gavage twice a day
[16] = Compound I medium dose 6 mg/kg twice a day for 4 weeks
[17] = Compound I medium dose 6 mg/kg twice a day

Cc1ccc(=O)n(-c2ccccc2)c1 [Pirfenidone, reference compound]
Liver fibrosis score (points) ([1]; pirfenidone 150 mg/kg oral gavage twice a day for 4 weeks): 5.40 ± 0.52 points
Liver CVF (%) [1, 3]: 6.58 ± 2.20 %
Liver HYP content [1, 3]: 611.19 ± 183.66 µg/g
Liver histopathological improvement under light microscope ([1]; pirfenidone 150 mg/kg twice a day, Sirius Red): no significant improvement

O=C(O)c1cc(/N=N/c2ccc(S(=O)(=O)Nc3ccccn3)cc2)ccc1O [Sulfasalazine, reference compound]
AUC(0-10 d) (D 0-D 10) of DAI scores [2, 4]: 29.80 ± 2.79
AUC(14-24 d) (D 14-D 24) of DAI scores [2, 4]: 11.70 ± 1.69
Proliferation of connective tissue and fibrosis process in submucosa and muscularis of the colon [2, 5]: significant improvements and healing
CVF (%) of colon middle segment [2, 6]: 2.67 ± 1.06 %
Inflammatory response (points), histopathological score of colon tissue [2, 6]: 0.60 ± 0.52 points
Tissue ulcer (points), histopathological score of colon tissue [2, 6]: 0.50 ± 0.53 points
HYP (μg/g) of colon middle segment [2, 6]: 1299.79 ± 161.27 µg/g
Change rate of AUC(0-10 d) (%) [2, 5]: −34.86%
Change rate of AUC(14-24 d) (%) [2, 5]: −51.35%

CC1(c2ccc(=O)n(-c3ccsc3)c2)COC1 [Compound I]
Efficacy evaluation result (conclusion) ([1]; Compound I 3.0, 10.0 and 30.0 mg/kg twice a day, 4 weeks): significant therapeutic effect
Liver fibrosis score (points) ([1]; Compound I high dose 30 mg/kg oral gavage twice a day for 4 weeks): 4.20 ± 0.92 points
Liver CVF (%) [1, 7]: 5.60 ± 1.92 %
Liver HYP content [1, 7]: 607.79 ± 112.74 µg/g
Liver fibrosis score (points) ([1]; Compound I low dose 3 mg/kg oral gavage twice a day for 4 weeks): 4.40 ± 0.70 points
Liver CVF (%) [1, 8]: 5.02 ± 1.42 %
Liver HYP content [1, 8]: 716.17 ± 105.01 µg/g
Pseudolobular structure of the liver under light microscope ([1]; Compound I medium and high dose treatment groups (10, 30 mg/kg twice a day), some animals, Sirius Red): tended to disintegrate
Liver fibrosis score (points) ([1]; Compound I medium dose 10 mg/kg oral gavage twice a day for 4 weeks): 4.00 ± 0.94 points
Liver CVF (%) [1, 9]: 4.87 ± 1.68 %
Liver HYP content [1, 9]: 560.60 ± 114.04 µg/g
Hepatocyte fat degeneration and swelling degeneration in the central vein area of the liver ([1]; each Compound I treatment group vs model control, medium and high dose most obvious): reduced to some extent
Efficacy evaluation result (conclusion) ([2]; Compound I 3.0, 6.0 and 15.0 mg/kg twice a day, 4 weeks): significant therapeutic effect
AUC(0-10 d) (D 0-D 10) of DAI scores [2, 10]: 33.50 ± 3.97
AUC(14-24 d) (D 14-D 24) of DAI scores [2, 10]: 15.40 ± 3.50
CVF (%) of colon middle segment [2, 11]: 2.37 ± 1.33 %
Inflammatory response (points), histopathological score of colon tissue [2, 11]: 0.80 ± 0.79 points
Tissue ulcer (points), histopathological score of colon tissue [2, 11]: 0.70 ± 0.67 points
HYP (μg/g) of colon middle segment [2, 11]: 1270.56 ± 287.01 µg/g
Change rate of AUC(0-10 d) (%) [2, 12]: −26.78%
Change rate of AUC(14-24 d) (%) [2, 12]: −35.97%
AUC(0-10 d) (D 0-D 10) of DAI scores [2, 13]: 37.15 ± 4.93
AUC(14-24 d) (D 14-D 24) of DAI scores [2, 13]: 19.30 ± 2.79
CVF (%) of colon middle segment [2, 8]: 2.97 ± 1.78 %
Inflammatory response (points), histopathological score of colon tissue [2, 8]: 1.00 ± 0.67 points
Tissue ulcer (points), histopathological score of colon tissue [2, 8]: 0.80 ± 0.63 points
HYP (μg/g) of colon middle segment [2, 8]: 1333.43 ± 155.33 µg/g
Change rate of AUC(0-10 d) (%) [2, 14]: −18.80%
Change rate of AUC(14-24 d) (%) [2, 14]: −19.75%
AUC(0-10 d) (D 0-D 10) of DAI scores [2, 15]: 36.05 ± 4.87
AUC(14-24 d) (D 14-D 24) of DAI scores [2, 15]: 17.25 ± 3.16
CVF (%) of colon middle segment [2, 16]: 2.36 ± 1.47 %
Inflammatory response (points), histopathological score of colon tissue [2, 16]: 0.70 ± 0.67 points
Tissue ulcer (points), histopathological score of colon tissue [2, 16]: 0.70 ± 0.67 points
HYP (μg/g) of colon middle segment [2, 16]: 1228.40 ± 235.44^####+ μg/g
Change rate of AUC(0-10 d) (%) [2, 17]: −21.20%
Change rate of AUC(14-24 d) (%) [2, 17]: −28.27%
Colon tissue healing and degree of fibrosis (histopathology) ([2]; all Compound I treatment groups (3, 6, 15 mg/kg twice a day)): tissue healing and a reduction in the degree of fibrosis were observed
Effective dose (colon fibrosis, HYP level improvement) ([2]; oral gavage twice a day, certain dose-dependent relationship): 3.0 mg/kg
Effective low dose (DAI AUC(0-10 d) improvement) ([2]; oral gavage twice a day, chronic colitis disease process): 3.0 mg/kg
